Where two headings read alike, the source gives them in different places.
System: mice
Experiment: Acetic Acid Induced Mouse Writhing Test
Assay type: in vivo, mouse (male CD-1)
Conditions: for ED50: sc
Method: Analgesic effects of the test compounds were determined in mice by use of the acetic acid induced writhing test described by B. A. Whittle, Brit. J. Pharmacol., 22:246 (1964). In this test, at least 3 groups of 5 male CD-1 mice each were given subcutaneous doses of the test drug dissolved in distilled water. In all cases, 0.4 mL of a 0.5% v/v acetic acid in distilled water solution was administered intraperitoneally 15 min. post drug. The number of writhes in a 20 min. interval beginning 5 min. after the acetic acid injection were determined and compared with the number of writhes in a control group which had received only acetic acid.
Percent inhibition of writhing was calculated as: [formula]
The ED50 dose, i.e., the dose required to reduce the number of writhes by 50%, was determined graphically from a plot of % inhibition as a probit verus log dose. […] See Lichtfield, J. T. and Wilcoxon, F., J. Pharmacol. Exp. Ther., 96, 99-113 (1949).
The results of this testing, both in terms of μ mole/kg and mg/kg of the compound tested, are set out in table I.

[1] = 0.25 h, Analgesic Activity In Mouse Writhing Assay - Subcutaneous Inj., acetic acid i.p. 15 min post drug, * = d-tartrate salt, read-out: ED50 (mg/kg)
[2] = 0.25 h, Analgesic Activity In Mouse Writhing Assay - Subcutaneous Inj., acetic acid i.p. 15 min post drug, * = d-tartrate salt, read-out: ED50 (μmole/kg)

`CN1CC[C@]23c4c5ccc(O)c4O[C@H]2[C@H]2OC[C@@]2(CCCc2ccccc2)C[C@H]3[C@H]1C5` [Compound 20d] was tested, and the ED50 [1] was 0.011 mg/kg and the ED50 [2] was 0.019 µmol/kg.
In the case of `Oc1ccc2c3c1O[C@H]1[C@H]4OC[C@@]4(CCCCc4ccccc4)C[C@H]4[C@@H](C2)N(CC2CC2)CC[C@@]341` [Compound 24Pe], the ED50 [1] is reported as 0.01 mg/kg and the ED50 [2] is reported as 0.015 µmol/kg.
In the case of `COc1ccc2c3c1O[C@H]1[C@H]4OC[C@@]4(CCCc4ccccc4)C[C@H]4[C@@H](C2)N(CC2CCC2)CC[C@@]341` [Compound 23Bd], the ED50 [1] is reported as 2.8 mg/kg and the ED50 [2] is reported as 4.4 µmol/kg.
`COc1ccc2c3c1O[C@H]1[C@H]4OC[C@@]4(CCCCCc4ccccc4)C[C@H]4[C@@H](C2)N(C)CC[C@@]341` [Compound 17f] was tested, and the ED50 [1] was 0.82 mg/kg and the ED50 [2] was 1.3 µmol/kg.
Work on `COc1ccc2c3c1O[C@H]1[C@H]4OC[C@@]4(CCCc4ccccc4)C[C@H]4[C@@H](C2)N(C)CC[C@@]341` [Compound 17d] yielded an ED50 [1] of 0.027 mg/kg and an ED50 [2] of 0.046 µmol/kg.
For `COc1ccc2c3c1O[C@H]1[C@@H]4OC[C@]4(CCCCc4ccccc4)C[C@H]4[C@@H](C2)N(C)CC[C@@]341` [Compound 8, 4,5α-Epoxy-3-methoxy-17-methyl-7α-(4-phenylbutyl)-6β,7β-(oxymethylene)-morphinan], the “activity in the acetic acid induced writhing assay” value (at 10 mg/kg) was “inactive”.
Work on `COc1ccc2c3c1O[C@H]1[C@H]4OC[C@@]4(CCCCc4ccccc4)C[C@H]4[C@@H](C2)N(CC2CCC2)CC[C@@]341` [Compound 23Be] yielded an ED50 [1] of 1.8 mg/kg and an ED50 [2] of 2.8 µmol/kg.
`Oc1ccc2c3c1O[C@H]1[C@H]4OC[C@@]4(CCCCc4ccccc4)C[C@H]4[C@@H](C2)N(CC2CCC2)CC[C@@]341` [Compound 24Be] gave an ED50 [1] of 0.22 mg/kg and an ED50 [2] of 0.05 µmol/kg.
For `Oc1ccc2c3c1O[C@H]1[C@H]4OC[C@@]4(CCCc4ccccc4)C[C@H]4[C@@H](C2)N(CC2CCC2)CC[C@@]341` [Compound 24Bd], the ED50 [1] was 0.0375 mg/kg and the ED50 [2] was 0.06 µmol/kg.
Compound `COc1ccc2c3c1O[C@H]1[C@H]4OC[C@@]4(CCc4ccccc4)C[C@H]4[C@@H](C2)N(CC2CC2)CC[C@@]341` [Compound 23Pc] has an ED50 [1] of 0.26 mg/kg and an ED50 [2] of 0.57 µmol/kg.
`CN1CC[C@]23c4c5ccc(O)c4O[C@H]2[C@H]2OC[C@@]2(CCCCc2ccccc2)C[C@H]3[C@H]1C5` [Compound 20e] gave an ED50 [1] of 0.014 mg/kg and an ED50 [2] of 0.024 µmol/kg.
In the case of `Oc1ccc2c3c1O[C@H]1[C@H]4OC[C@@]4(CCCc4ccccc4)C[C@H]4[C@@H](C2)N(CC2CC2)CC[C@@]341` [Compound 24Pd], the ED50 [1] is reported as 0.0015 mg/kg and the ED50 [2] is reported as 0.003 µmol/kg.
With `CN1CC[C@]23c4c5ccc(O)c4O[C@H]2[C@H]2OC[C@@]2(CCCCCc2ccccc2)C[C@H]3[C@H]1C5` [Compound 20f] the ED50 [1] was 0.017 mg/kg and the ED50 [2] was 0.028 µmol/kg.
Work on `Oc1ccc2c3c1O[C@H]1[C@H]4OC[C@@]4(CCc4ccccc4)C[C@H]4[C@@H](C2)N(CC2CC2)CC[C@@]341` [Compound 24Pc] yielded an ED50 [1] of 0.018 mg/kg and an ED50 [2] of 0.04 µmol/kg.
`COc1ccc2c3c1O[C@H]1[C@H]4OC[C@@]4(CCc4ccccc4)C[C@H]4[C@@H](C2)N(C)CC[C@@]341` [Compound 17c] was tested, and the ED50 [1] was 0.5 mg/kg and the ED50 [2] was 0.9 µmol/kg.
For `COc1ccc2c3c1O[C@H]1[C@H]4OC[C@@]4(CCCCc4ccccc4)C[C@H]4[C@@H](C2)N(C)CC[C@@]341` [Compound 17e], the ED50 (Mus musculus, acetic acid induced writhing assay, contrasted with compound 8, read-out: ED50 in the same assay) was 0.003 mg/kg, the ED50 [1] was 0.0028 mg/kg and the ED50 [2] was 0.005 µmol/kg.
With `COc1ccc2c3c1O[C@H]1[C@H]4OC[C@@]4(CCc4ccccc4)C[C@H]4[C@@H](C2)N(CC2CCC2)CC[C@@]341` [Compound 23Bc] the ED50 [1] was greater than 10 mg/kg and the ED50 [2] was greater than 16 µmol/kg.
`COc1ccc2c3c1O[C@H]1[C@H]4OC[C@@]4(CCCc4ccccc4)C[C@H]4[C@@H](C2)N(CC2CC2)CC[C@@]341` [Compound 23Pd] was tested, and the ED50 [1] was 0.67 mg/kg and the ED50 [2] was 1.07 µmol/kg.
With `CN1CC[C@]23c4c5ccc(O)c4O[C@H]2[C@H]2OC[C@@]2(CCc2ccccc2)C[C@H]3[C@H]1C5` [Compound 20c] the ED50 [1] was 0.024 mg/kg and the ED50 [2] was 0.048 µmol/kg.
`Oc1ccc2c3c1O[C@H]1[C@H]4OC[C@@]4(CCc4ccccc4)C[C@H]4[C@@H](C2)N(CC2CCC2)CC[C@@]341` [Compound 24Bc] showed an ED50 [1] of 0.177 mg/kg and an ED50 [2] of 0.39 µmol/kg.
`COc1ccc2c3c1O[C@H]1[C@H]4OC[C@@]4(CCCCc4ccccc4)C[C@H]4[C@@H](C2)N(CC2CC2)CC[C@@]341` [Compound 23Pe] showed an ED50 [1] of 0.39 mg/kg and an ED50 [2] of 0.61 µmol/kg.

From patent US4443605A, “7β-Arylalkyl-6α, 7 α-oxymethylene-3-methoxy or 3-hydroxy-4, 5α-epoxy-17 methyl or 17-cycloalkyl-methyl morphinans” (Miles Laboratories, Inc., priority 1982, dated 1984)
